One test deals with Panc-1 cells. In words: Cell death in Panc-1 pancreatic cancer cells. It counts as cell-based. The method, then:
(§1) FIGS. 3A-3H show synergistic anti-tumor effects of C6-ceramide and gemcitabine in vivo and in vitro. SCID/Beige/Taconic nude male mice (22-25 g; 6-8 weeks old) were ear tagged and randomized into 4 different groups (Control, Ceramide, gemcitabine, Ceramide+gemcitabine) combining 5 mice each prior to inoculation subcutaneous (s.c.) with 2×10^6 L3.6 cells in a 0.1 ml volume into the internal surface of the right thigh. Treatment was started 4 days after L3.6 cell injection with thrice weekly (3×/wk) intraperitoneal (i.p.) injections of gemcitabine (two doses: 5.0 and 10.0 mg/ml) with or without C6-ceramide (10 mg/ml) for 2 weeks. Mouse survival (FIGS. 3A, 3B, and 3E) and tumor volume (in cm^3; FIGS. 3C and 3D) were recorded (FIG. 3E). […] Mitomycin C was always present in the media to prevent cell proliferation from occurring. The data represent the mean±SD of at least triplicate experiments. *P<0.05 versus group without C6-ceramide presents. The experiments were repeated at least three times and similar results were observed.
(§2) Cell viability was measured by the 3-[4m5-dimethylthylthiazol-2-y]-2.5 diphenyltetrazolium bromide (MTT) method, as described in Cao et al. (2009) Sci. Signal, 2:RA17. Briefly, the cells were collected and seeded in 96-well plate at a density of 2×10^5 cells/cm^2. Different seeding densities were optimized at the beginning of the experiments. […] The medium was subsequently aspirated from each well and 150 ul of DMSO (Sigma, St. Louis, Mo.) was added to dissolve formazan crystals and the absorbance of each well was obtained using a Dynatech MR5000 plate reader at a test wavelength of 490 nm with a reference wavelength of 630 nm.
(§3) The possible combination effect of C6-ceramide on gemcitabine-induced cytotoxicity (in vitro) and regression (in vivo) of the L3.6 pancreatic cancer cell was also tested according to the methods described in Examples 2 and 3. […] A synergistic anti-tumor effect of gemcitabine and C6-ceramide in multiple pancreatic cancer cells in vitro was also determined.

In the next test the test system is MIA-PaCa2 cells. In words: Cell death in MIA-PaCa2 pancreatic cancer cells. The class given is cell-based. The method, then:
as §1, §2, §3

The record followed here is patent US9974760B2, “Compositions and methods for treating cancer” (Chemo-Enhanced LLC, priority 2011, dated 2018).

For `CCCCCCCCCCCCC/C=C/[C@@H](O)[C@H](CO)NC(=O)CCCCC` [C6-ceramide, N-hexanoyl-D-sphingosine], the sensitization to cetuximab entry was “markedly sensitized” in the test with Panc-1 cells (PANC-1, activating KRAS mutation) and “markedly sensitized” in the test on MIA-PaCa2 cells (MIA PaCa-2, activating KRAS mutation). Moreover, the cancer cell death entry with Panc-1 cells (Panc-1, gemcitabine 1.5 μg/ml) is “moderate effect”; in the test on MIA-PaCa2 cells (MIA cells, gemcitabine 1.5 μg/ml), “moderate effect”.
